Test [1] relates to human embryonic stem cell line H1. Kind of test: Real-time PCR gene expression, BMP inhibition and PKC activation at S3 (Example 2). Type of test: cell-based. As to conditions: 50 nM compared with 200 nM at S3. The protocol:
Cells of the human embryonic stem cell line H1 were harvested at various passages (passage 40 to passage 52) and were seeded as single cells at a density of 100,000 cells/cm^2 on MATRIGEL™ (1:30 dilution) coated dishes in mTesr™1 media supplemented with 10 μM of Y27632. Forty eight hours post-seeding, cultures were differentiated into cells of the pancreatic endocrine lineage as follows: • a. Stage 1 (Definitive Endoderm (DE)—3 days): Prior to start of DE, the cultures were washed and incubated with incomplete PBS (no Mg or Ca) for 30 seconds followed by addition of the stage 1 media. Human embryonic stem cells cultured as single cells on MATRIGEL™-coated dishes were treated with MCDB-131 medium supplemented with 0.1% fatty acid-free BSA, 0.0012 g/ml sodium bicarbonate, 1× GLUTAMAX™, and 2.5 mM D-Glucose, 100 ng/ml GDF8, and […] MCX compound (GSK3B inhibitor) for one day. Cells were then treated with MCDB-131 medium supplemented with 0.1% fatty acid-free BSA, 0.0012 g/ml sodium bicarbonate, 1× GLUTAMAX™, 2.5 mM glucose, and 100 ng/ml GDF8 for days 2-3. • b. […]
mRNA was collected at S2-S4 for all the conditions listed above and analyzed using real-time PCR. […]
A general note: Quantitative PCR measures a nucleic acid by following its amplification.

For test [2] the test system is unchanged. Description: Real-time PCR gene expression, dose of BMP inhibitor at S4 (Example 5). Type of test: cell-based. Particulars: 50 nM or 100 nM at days 1, 2, 3, or 4 of S4. The protocol: Cells of the human embryonic stem cell line H1 at various passages (passage 40 to passage 52) were seeded as single cells at a density of 100,000 cells/cm^2 on MATRIGEL™ (1:30 dilution) coated dishes in mTesr™1 media and 10 μM of Y27632. Forty eight hours post seeding, cultures were differentiated into pancreatic endocrine lineage as follows: • a. Stage 1 (Definitive Endoderm (DE)−4 days): Prior to start of DE, the cultures were washed and incubated with incomplete PBS (no Mg or Ca) for 30 seconds followed by addition of the stage 1 media. Human embryonic stem cells cultured as single cells on MATRIGEL™-coated dishes were treated with MCDB-131 medium supplemented with 0.1% fatty acid-free BSA, 0.0012 g/ml sodium bicarbonate, 1× GLUTAMAX™, 2.5 mM D-Glucose, 100 ng/ml GDF8, and 1 μM MCX compound (GSK3B inhibitor) for one day. Cells were then treated with MCDB-131 medium supplemented with 0.1% fatty acid-free BSA, 0.0012 g/ml sodium bicarbonate, 1× GLUTAMAX™, 2.5 mM glucose, and 100 ng/ml GDF8 for days 2-4. • b. Stage 2 (Primitive gut tube−3 days): Stage 1 cells were treated with MCDB-131 medium supplemented with 0.1% fatty acid-free BSA, 0.0012 g/ml sodium bicarbonate, 1× GLUTAMAX™, 2.5 mM D-Glucose, and 50 ng/ml FGF7 for three days. • c. […]

The values below come from patent publication US12215354B2, “Differentiation of human embryonic stem cells into single hormonal insulin positive cells” (Janssen Biotech, Inc., priority 2011, dated 2025).

Consider `c1ccc2c(-c3cnn4cc(-c5ccc(N6CCNCC6)cc5)cnc34)ccnc2c1` [LDN-193189], for which the “induction of endocrine markers (chromogranin and NGN3)” value in test [1] was “as effective as 200 nM LDN-193189”. Further, in test [2], the “expression of endocrine markers” value is “prolong”. The “expression of SOX2” value in test [2] (at S4-S5) is on record as “low expression”.
